In US20080146457A1, “METHOD FOR THE DETERMINATION OF CELL ACTIVATION” (priority 2003, published 2008):

Assays:
Format in all cases: cell-based
Erk1/2 = assay: Phosphorylation status of Erk1/2 in PMA-treated Jurkat cells on double antibody array; conditions: PMA 0.1 to 1000 ng/ml, 10 minutes
JNK1/2 = assay: Level of phosphorylation of JNK1/2 in anisomycin-treated Jurkat cells on multiplex arrays
Protocol: (§1) Hybridization chambers were placed onto diaglass functionalized slides (EAT, Namur, Belgium) spotted with antibodies specific of the protein to be detected, in this case anti-Akt antibodies. The spotting was performed with a split pin or a pin and ring or a plain pin. Each spot contained between 0.5 and 10 nl depending on the type of pin used and its diameter.
(§2) The slides were washed 4×1 min in Washing Buffer (EAT, Namur, Belgium). The slides were then incubated for 1 h with 500 μl of a specific rabbit detection antibody against phospho-Akt diluted 500× in Blocking Buffer (EAT, Namur, Belgium). The slides were washed 4×1 min in Washing Buffer. The slides were then incubated for 45 min at room temperature with a conjugated antibody (anti-rabbit Cy3) diluted 1000× in Blocking Buffer. The slides were washed 4×1 min in Washing Buffer and then rinsed twice in water. The slides were scanned in a laser confocal scanner “ScanArray” (Packard, USA) at a resolution of 10 μm.
(§3) The assay was performed as described in Example 1, but two identical arrays were present on each slide. The capture antibodies spotted on the left and right arrays were the same, but the detection antibodies were either specific to the phospho-Akt (right arrays) or to the total Akt (left arrays). Four different mixes were prepared as follows: (1) 40 ng of purified Akt and 40 ng of purified phospho Akt; (2) 40 ng of purified Akt and 20 ng of purified phospho Akt; (3) 40 ng of purified Akt and 10 ng of purified phospho Akt; (4) 40 ng of purified Akt and 5 ng of purified phospho Akt. In this experiment, four slides were used. […] The intensity of the spots on each array was then quantified and the results clearly show decreasing signal intensities correlating with decreasing concentrations of phospho-Akt on the right arrays. The calculated ratios of phospho vs. total Akt directly relates to the known concentration used in the four different mixes.
(§4) Each slide contained 2 identical arrays. The two arrays were incubated with the same samples possibly containing the proteins to be detected. The left array was then incubated with a mixture of 7 detection antibodies directed against the 7 proteins to be detected. The right array was incubated with a mixture of 7 detection antibodies directed against the phospho-specific form of the 7 proteins to be detected. […] The samples consisted of each of the 7 proteins to be detected, in their non-phosphorylated or phosphorylated form, or combinations thereof.
(§5) The experiment was performed on slides containing a double array as presented in Example 4. […] The protein chips allowed to simultaneously quantify the level of phosphorylation of p38 and JNK1/2 due to the effect of anisomycin on cells.

p38 = assay: Level of phosphorylation of p38 in anisomycin-treated Jurkat cells on multiplex arrays
Protocol: as §1, §2, §3, §4, §5

[1] = 8 different concentrations of anisomycin

## CCCCCCCCCCCCCC(=O)O[C@@H]1[C@@H](C)[C@@]2(O)[C@@H](C=C(CO)C[C@]3(O)C(=O)C(C)=C[C@@H]23)[C@@H]2C(C)(C)[C@]12OC(C)=O [PMA, phorbol 12-myristate 13-acetate]
Erk1/2
  amount of Erk1/2 (total protein): remains constant
  levels of phosphorylation at threonine 185 and tyrosine 187 of Erk1/2: increase with the amount of PMA

## COc1ccc(C[C@H]2NC[C@H](O)[C@H]2OC(C)=O)cc1 [anisomycin]
JNK1/2; [1]
  level of phospho form of JNK1/2: increase with the anisomycin concentration
  level of total JNK1/2: remain constant
JNK1/2; anisomycin 0.01 μM
  ratio of Phospho vs. total forms of JNK1/2: 0.33
JNK1/2; anisomycin 1 μM
  ratio of Phospho vs. total forms of JNK1/2: 0.88
p38; [1]
  level of phospho form of p38: increase with the anisomycin concentration
  level of total p38: remain constant
p38; anisomycin 1 μM
  ratio of Phospho vs. total forms of p38: 0.33
p38; anisomycin 100 μM
  ratio of Phospho vs. total forms of p38: 1.0
